Reference: US11931365B2, “Use of PPAR-delta agonists in the treatment of disease” (Reneo Pharmaceuticals, Inc., priority 2022, dated 2024)
Marks after values point to notes of the source that are not given here.

Assays:
[1] = test system: CPT2-deficient myoblasts; conditions: Djouadi 2005; cited from earlier work
[2] = test system: patient fibroblasts (VLCAD, LCHAD, TFP deficiencies); conditions: Goddeeris 2017; cited from earlier work
[3] = XRPD re-analysis after GVS isotherm; format: physicochemical; conditions: after isotherm at 90% RH and 25° C.
Experimental: The samples were recovered after completion of the isotherm experiment at 90% RH and 25° C. and re-analyzed by XRPD.

[4] = Variable temperature XRPD (heating); format: physicochemical; conditions: heating to 110° C.
Experimental: For variable temperature (VT-XRPD) experiments the samples were prepared and analyzed in an Anton Paar chromed sample holder. A heating/cooling rate of 10° C./min was used with a 2 min isothermal hold before the measurement started. The measurement parameters are as per the standard screening data collection method (detailed above). Measurements were taken at the following temperatures: […]

[5] = Gravimetric Vapor Sorption (GVS); format: physicochemical; conditions: 25° C., w/w
Experimental: Sorption isotherms were obtained using a SMS DVS Intrinsic moisture sorption analyzer, controlled by DVS Intrinsic Control software. The sample temperature was maintained at 25° C. by the instrument controls. The humidity was controlled by mixing streams of dry and wet nitrogen, with a total flow rate of 200 ml/min. The relative humidity was measured by a calibrated Rotronic probe (dynamic range of 1.0-100% RH), located near the sample. The weight change, (mass relaxation) of the sample as a function of % RH was constantly monitored by a microbalance (accuracy ±0.005 mg).
Typically, 5-30 mg of sample was placed in a tared mesh stainless steel basket under ambient conditions. The sample was loaded and unloaded at 40% RH and 25° C. (typical room conditions). A moisture sorption isotherm was performed as outlined below (2 scans per complete cycle). The standard isotherm was performed at 25° C. at 10% RH intervals over a 0-90% RH range. Typically, a double cycle (4 scans) was carried out. Data analysis was carried out within Microsoft Excel using the DVS Analysis Suite.

[6] = Stability of solid state forms (storage, drying), XRPD; format: physicochemical
Experimental: Samples were assessed for stability under ambient or static storage conditions of 25° C./[…] and 40° C./75% RH for 7 or 10 days. The samples were then re-analyzed by XRPD. Subsequent XRPD analysis results for the crystalline forms are described below: […]

[7] = test system: CPT2; conditions: patient fibroblasts, mild CPT2 mutations; Djouadi 2003; cited from earlier work
[8] = Competitive slurries Form 1 / Form 2 (thermodynamic stability); format: physicochemical; conditions: water activities 0.4-0.8; 5, 25, 50° C.
Experimental: Competitive slurries aiming to determine the order of stability between Form 1 and Form 2 were performed in a range of water activities (0.4-0.8).
Crystalline Form 1 (2 g) and Crystalline Hydrate Form 2 (2 g) were lightly ground together using a mortar and pestle and then mixed using a roller mixer for approximately 2 hours. An XRPD was collected on this sample.
Saturated solutions at 5° C./25° C. were prepared by suspending the mixed sample (200 mg) in 4 ml of the selected solvent and saturated solutions were prepared at 50° C. by suspending the mixed sample (100 mg) in 1 ml of the selected solvent. The saturated solutions were left stirring for 3 hrs at 25° C. and 50° C. The saturated solutions at 25° C. were filtered and split into solutions at 5° C. and 25° C. The mixed sample (50 mg) was added to the filtered solutions. Two control samples of Form 2 (50 mg) were prepared in 1 ml of acetone:water (99:1) and EtOH:water (95:5) and left stirring at 5° C., 25° C. and 50° C.

[9] = listed as crystalline Form 4 of Compound II

Row | SMILES | FAO [1] | Solid State Form After GVS (XRPD) [3] | Reversible Water Uptake between 0-90% RH [5] | XRPD form after storage ([6]; 25° C./97% RH/7 days) | XRPD form after storage ([6]; 40° C./75% RH/7 days) | also measured
1 | CC(C)(Sc1ccc(CCN(CCCCC2CCCCC2)C(=O)NC2CCCCC2)cc1)C(=O)O [GW 7647] | had no effect |  |  |  |  | 
2 | Cc1cnc(-c2ccc(C(F)(F)F)cc2)n1Cc1ccccc1OCCC[C@@H](C)CC(=O)O [MA-0211] |  |  |  |  |  | fatty acid oxidation [2]: improvements
3 | Cc1cc(OC/C=C(/c2ccc(F)cc2)c2ccc(C#CCN3CCOCC3)cc2)ccc1OCC(=O)[O-].[Na+] [Form 4, sodium (E)-2-(4-((3-(4-fluorophenyl)-3-(4-(3-morpholinoprop-1-yn-1-yl)phenyl)allyl)oxy)-2-methylphenoxy)acetate] |  | Form 2 | ~23% | Form 2 | Form 1 | Solid State Form After GVS (XRPD) [3, 9]: converts to Form 2; XRPD after heating [4]: unchanged; Reversible Water Uptake between 0-90% RH [5, 9]: ~23%; XRPD form after storage ([6]; 25° C./97% RH/7 days, listed as crystalline Form 4 of Compound II): converts to Form 2; XRPD form after storage ([6]; 40° C./75% RH/7 days, listed as crystalline Form 4 of Compound II): converts to Form 1
4 | CC(C)(Oc1ccc(CCNC(=O)c2ccc(Cl)cc2)cc1)C(=O)O [bezafibrate, 2-(4-{2-[(4-Chlorobenzoyl)amino]ethyl}phenoxy)-2-methylpropanoic acid] | able to restore FAO |  |  |  |  | activity of the deficient enzyme (CPT2) [7]: pharmacological enhancement
5 | Cc1cc(OC/C=C(/c2ccc(F)cc2)c2ccc(C#CCN3CCOCC3)cc2)ccc1OCC(=O)[O-].[Na+] [Form 1, sodium (E)-2-(4-((3-(4-fluorophenyl)-3-(4-(3-morpholinoprop-1-yn-1-yl)phenyl)allyl)oxy)-2-methylphenoxy)acetate] |  | Unchanged (Form 1) | ~13.0% † | Form 2 | Unchanged (Form 1) | Reversible Water Uptake between 0-90% RH ([5]; listed as crystalline Form 1 of Compound II): ~13.0%; form found in competitive slurries of Form 1 and Form 2 [8]: present in most cases with no evidence of Form 2; time to complete conversion to Form 2 ([6]; 25° C./97% RH): 4 weeks
